Patent publication US10227357B2, “Compounds and methods for kinase modulation, and indications therefor” (Plexxikon Inc., priority 2012, dated 2019)

How the values were obtained:
c-kit kinase = target: T1, c-kit kinase (Homo sapiens, UniProt P10721); test: c-Kit biochemical assay, AlphaScreen, 10 μM ATP; conditions: c-kit biochemical inhibitory activity; read-out: Biochemical activity (IC50 μM) Kit
T1 construct: The c-kit (or kinase domain thereof) is an active kinase in AlphaScreen; poly-Histidine tag (in-house protein only) (cleaved yes); host or cells: E. coli BL21(DE3)RIL, co-expressed with PTP1B
Procedure, shortened: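 His-tagged c-Kit expressed in E. coli with co-expressed PTP1B (dephosphorylated), tag removed; 0.1 ng per reaction with biotinylated-peptide substrate in 50 mM HEPES pH 7.2, 5 mM MgCl2, 5 mM MnCl2, 5% DMSO, 10 μM ATP, 1 h at room temperature. Phosphorylation detected by AlphaScreen (streptavidin donor, PY20 acceptor beads); IC50 from 8-point 1:3 dilution series.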

c-kit mutant D816V = target: T2, c-kit mutant D816V (Homo sapiens, UniProt P10721, D816V/DEL694-753); test: c-Kit mutant D816V biochemical assay, AlphaScreen; conditions: c-kit D816V biochemical inhibitory activity; read-out: Biochemical activity (IC50 μM) Kit D816V
T2 construct: residues 551-934, kinase insertion domain residues 694-753 deleted; 6x-histidine (N); made in house; host or cells: E. coli Arctic Express (DE3) RIL (Stratagene)
Procedure, shortened: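 Purified His-tagged c-Kit D816V (E. coli-expressed) assayed in 25 mM HEPES pH 7.2 with Mg/Mn, 5% DMSO and 10 μM ATP, 30 min at room temperature, 8-point 1:3 dilutions. Phosphorylation detected by AlphaScreen with streptavidin donor and PY20 acceptor beads; IC50 from signal versus concentration.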

T2 sequence (P10721 with tags, fused parts or gaps DEL694-753/D816V): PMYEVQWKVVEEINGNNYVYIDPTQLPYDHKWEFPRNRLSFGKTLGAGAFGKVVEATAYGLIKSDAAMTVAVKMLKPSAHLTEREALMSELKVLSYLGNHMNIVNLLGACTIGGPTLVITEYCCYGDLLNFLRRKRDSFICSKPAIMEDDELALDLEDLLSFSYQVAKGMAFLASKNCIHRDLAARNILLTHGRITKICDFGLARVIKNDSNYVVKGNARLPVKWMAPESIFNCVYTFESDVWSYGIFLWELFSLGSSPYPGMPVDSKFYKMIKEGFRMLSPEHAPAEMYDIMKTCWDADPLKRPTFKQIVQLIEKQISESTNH
T1 sequence (P10721 26-976): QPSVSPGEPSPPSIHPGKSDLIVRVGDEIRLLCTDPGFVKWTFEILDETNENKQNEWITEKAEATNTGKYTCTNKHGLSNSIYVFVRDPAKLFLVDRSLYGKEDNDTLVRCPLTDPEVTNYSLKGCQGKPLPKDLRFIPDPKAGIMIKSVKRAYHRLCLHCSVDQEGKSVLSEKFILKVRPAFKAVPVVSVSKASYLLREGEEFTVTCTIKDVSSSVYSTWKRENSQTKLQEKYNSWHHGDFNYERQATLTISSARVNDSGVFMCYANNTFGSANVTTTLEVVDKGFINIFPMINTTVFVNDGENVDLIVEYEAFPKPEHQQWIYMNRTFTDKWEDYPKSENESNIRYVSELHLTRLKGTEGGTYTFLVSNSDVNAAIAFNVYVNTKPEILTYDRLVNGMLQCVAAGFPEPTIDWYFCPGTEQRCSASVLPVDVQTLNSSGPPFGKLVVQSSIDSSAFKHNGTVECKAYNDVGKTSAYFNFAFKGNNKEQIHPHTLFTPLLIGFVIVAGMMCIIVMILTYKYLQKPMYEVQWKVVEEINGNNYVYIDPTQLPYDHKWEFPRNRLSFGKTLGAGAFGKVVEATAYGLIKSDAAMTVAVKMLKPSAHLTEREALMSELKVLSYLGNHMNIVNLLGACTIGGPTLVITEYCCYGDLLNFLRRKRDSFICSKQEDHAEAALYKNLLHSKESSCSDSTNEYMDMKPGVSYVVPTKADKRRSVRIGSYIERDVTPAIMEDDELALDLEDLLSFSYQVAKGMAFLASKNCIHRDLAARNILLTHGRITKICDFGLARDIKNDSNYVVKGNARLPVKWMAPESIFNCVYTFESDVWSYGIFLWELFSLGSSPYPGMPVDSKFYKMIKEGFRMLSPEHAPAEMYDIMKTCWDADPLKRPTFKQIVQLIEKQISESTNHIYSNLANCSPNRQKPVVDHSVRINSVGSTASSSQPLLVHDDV

CCCS(=O)(=O)Nc1ccc(-c2ncnc3cc(OC)c(OC)cc23)c(F)c1 [P-0269, N-[4-(6,7-dimethoxyquinazolin-4-yl)-3-fluoro-phenyl]propane-1-sulfonamide]
IC50 (c-kit kinase): 10 to 200 µM | IC50 (c-kit mutant D816V): 0.0001 to 1 µM

Cc1ccc(S(=O)(=O)NC2CCN(c3ncnc4[nH]c(-c5cnn(C)c5)cc34)CC2C)cc1 (centres unmarked) [P-0672, 4-methyl-N-[3-methyl-1-[6-(1-methylpyrazol-4-yl)-7H-pyrrolo[2,3-d]pyrimidin-4-yl]-4-piperidyl]benzenesulfonamide]
IC50 (c-kit kinase): 0.0001 to 1 µM | IC50 (c-kit mutant D816V): 0.0001 to 1 µM

CS(=O)(=O)Nc1ccc(-c2cc3c(N4CCN(C(=O)Nc5ccc(OC(F)(F)F)cc5)CC4)ncnc3[nH]2)cc1 [P-0077, 4-[6-[4-(methanesulfonamido)phenyl]-7H-pyrrolo[2,3-d]pyrimidin-4-yl]-N-[4-(trifluoromethoxy)phenyl]piperazine-1-carboxamide]
IC50 (c-kit kinase): 0.0001 to 1 µM | IC50 (c-kit mutant D816V): 0.0001 to 1 µM

COc1cc(NC(=O)N2CCN(c3ncnc4[nH]c(-c5ccccc5)cc34)CC2)cc(OC)c1 [P-0239, N-(3,5-dimethoxyphenyl)-4-(6-phenyl-7H-pyrrolo[2,3-d]pyrimidin-4-yl)piperazine-1-carboxamide]
IC50 (c-kit kinase): 0.0001 to 1 µM | IC50 (c-kit mutant D816V): 1 to 10 µM

NS(=O)(=O)c1cccc(-c2cc3c(N4CCN(C(=O)NCc5ccc(F)cc5)CC4)ncnc3[nH]2)c1 [P-0105, N-[(4-fluorophenyl)methyl]-4-[6-(3-sulfamoylphenyl)-7H-pyrrolo[2,3-d]pyrimidin-4-yl]piperazine-1-carboxamide]
IC50 (c-kit kinase): 1 to 10 µM | IC50 (c-kit mutant D816V): 0.0001 to 1 µM

CN(C)c1ncc(-c2cc3c(N4CCC(NS(=O)(=O)c5ccc(OC(F)(F)F)cc5)CC4)ncnc3[nH]2)s1 [P-0673, N-[1-[6-[2-(dimethylamino)thiazol-5-yl]-7H-pyrrolo[2,3-d]pyrimidin-4-yl]-4-piperidyl]-4-(trifluoromethoxy)benzenesulfonamide]
IC50 (c-kit kinase): 1 to 10 µM | IC50 (c-kit mutant D816V): 1 to 10 µM

O=S(=O)(Nc1ccc(-c2ncnc3cc4c(cc23)OCCO4)c(F)c1)C1CC1 [P-0265, N-[4-(7,8-dihydro-[1,4]dioxino[2,3-g]quinazolin-4-yl)-3-fluoro-phenyl]cyclopropanesulfonamide]
IC50 (c-kit kinase): 10 to 200 µM | IC50 (c-kit mutant D816V): 10 to 200 µM

Cc1cc2c(N3CCN(C(=O)N[C@@H](C)c4ccc(F)cc4)C(C)(C)C3)ncnc2[nH]1 [P-0644, N-[(1S)-1-(4-fluorophenyl)ethyl]-2,2-dimethyl-4-(6-methyl-7H-pyrrolo[2,3-d]pyrimidin-4-yl)piperazine-1-carboxamide]
IC50 (c-kit kinase): 10 to 200 µM | IC50 (c-kit mutant D816V): 1 to 10 µM

CC(=O)Nc1ccc(-c2cc3c(N4CCN(C(=O)Nc5ccc(OC(F)(F)F)cc5)CC4)ncnc3[nH]2)cn1 [P-0084, 4-[6-(6-acetamido-3-pyridyl)-7H-pyrrolo[2,3-d]pyrimidin-4-yl]-N-[4-(trifluoromethoxy)phenyl]piperazine-1-carboxamide]
IC50 (c-kit kinase): 1 to 10 µM | IC50 (c-kit mutant D816V): 0.0001 to 1 µM

Cc1nn(C)cc1-c1cc2ncnc(N3CCN(C(=O)N[C@@H](C)c4cccc(Cl)c4)C(C)(C)C3)c2s1 [P-0564, N-[(1S)-1-(3-chlorophenyl)ethyl]-4-[6-(1,3-dimethylpyrazol-4-yl)thieno[3,2-d]pyrimidin-4-yl]-2,2-dimethyl-piperazine-1-carboxamide]
IC50 (c-kit kinase): 1 to 10 µM | IC50 (c-kit mutant D816V): 0.0001 to 1 µM

C[C@H](NC(=O)N1CCN(c2ncnc3[nH]c(-c4ccc(C#N)cc4)cc23)C[C@H]1C)c1ccc(Cl)cc1 [P-0691, (2R)-N-[(1S)-1-(4-chlorophenyl)ethyl]-4-[6-(4-cyanophenyl)-7H-pyrrolo[2,3-d]pyrimidin-4-yl]-2-methyl-piperazine-1-carboxamide]
IC50 (c-kit kinase): 10 to 200 µM | IC50 (c-kit mutant D816V): 0.0001 to 1 µM

C[C@H](NC(=O)N1CCN(c2ncnc3[nH]c(-c4ccncc4)cc23)C[C@H]1C)c1ccc(F)cc1 [P-0058, (2R)-N-[(1S)-1-(4-fluorophenyl)ethyl]-2-methyl-4-[6-(4-pyridyl)-7H-pyrrolo[2,3-d]pyrimidin-4-yl]piperazine-1-carboxamide]
IC50 (c-kit kinase): 1 to 10 µM | IC50 (c-kit mutant D816V): 0.0001 to 1 µM

Cc1ccc(S(=O)(=O)Nc2ccc(-c3ncnc4[nH]nc(C)c34)cc2)cc1 [P-0447, 4-methyl-N-[4-(3-methyl-1H-pyrazolo[3,4-d]pyrimidin-4-yl)phenyl]benzenesulfonamide]
IC50 (c-kit kinase): 1 to 10 µM | IC50 (c-kit mutant D816V): 0.0001 to 1 µM

O=S(=O)(Nc1ccc(-c2ncnc3[nH]c(-c4cc(F)ccc4F)cc23)c(F)c1)C1CC1 [P-0338, N-[4-[6-(2,5-difluorophenyl)-7H-pyrrolo[2,3-d]pyrimidin-4-yl]-3-fluoro-phenyl]cyclopropanesulfonamide]
IC50 (c-kit kinase): 10 to 200 µM | IC50 (c-kit mutant D816V): 1 to 10 µM

CCOC(=O)N1CCN(c2cc3ncnc(N4CCN(C(=O)N[C@@H](C)c5cccc(OC)c5)C(C)(C)C4)c3s2)CC1 [P-0681, ethyl 4-[4-[4-[[(1S)-1-(3-methoxyphenyl)ethyl]carbamoyl]-3,3-dimethyl-piperazin-1-yl]thieno[3,2-d]pyrimidin-6-yl]piperazine-1-carboxylate]
IC50 (c-kit kinase): 1 to 10 µM | IC50 (c-kit mutant D816V): 0.0001 to 1 µM

O=S(=O)(NCc1ccc(F)cc1)c1ccc(-c2ncnc3[nH]c(-c4ccc(F)cc4)cc23)c(F)c1 [P-0354, 3-fluoro-N-[(4-fluorophenyl)methyl]-4-[6-(4-fluorophenyl)-7H-pyrrolo[2,3-d]pyrimidin-4-yl]benzenesulfonamide]
IC50 (c-kit kinase): 10 to 200 µM | IC50 (c-kit mutant D816V): 0.0001 to 1 µM

O=C(NCc1cccc(F)c1)NC1CCN(c2ncnc3[nH]ccc23)CC1 [P-0510, 1-[(3-fluorophenyl)methyl]-3-[1-(7H-pyrrolo[2,3-d]pyrimidin-4-yl)-4-piperidyl]urea]
IC50 (c-kit kinase): 10 to 200 µM | IC50 (c-kit mutant D816V): 10 to 200 µM

O=S(=O)(Nc1ccc(-c2ncnc3[nH]c(C4=CCCC4)cc23)cc1)c1ccc(F)cc1 [P-0296, N-[4-[6-(cyclopenten-1-yl)-7H-pyrrolo[2,3-d]pyrimidin-4-yl]phenyl]-4-fluoro-benzenesulfonamide]
IC50 (c-kit kinase): 1 to 10 µM | IC50 (c-kit mutant D816V): 0.0001 to 1 µM

Cc1nn(C)cc1-c1cc2c(N3CCN(C(=O)N[C@@H](C)c4ccc(F)cc4)[C@H](C)C3)ncnc2[nH]1 [P-0715, (2R)-4-[6-(1,3-dimethylpyrazol-4-yl)-7H-pyrrolo[2,3-d]pyrimidin-4-yl]-N-[(1S)-1-(4-fluorophenyl)ethyl]-2-methyl-piperazine-1-carboxamide]
IC50 (c-kit kinase): 1 to 10 µM | IC50 (c-kit mutant D816V): 0.0001 to 1 µM

COc1ccc(S(=O)(=O)Nc2ccc(-c3ncnc4cc(OC)c(OCCCN5CCOCC5)cc34)c(F)c2)cc1 [P-0249, N-[3-fluoro-4-[7-methoxy-6-(3-morpholinopropoxy)quinazolin-4-yl]phenyl]-4-methoxy-benzenesulfonamide]
IC50 (c-kit kinase): 1 to 10 µM | IC50 (c-kit mutant D816V): 0.0001 to 1 µM

CCS(=O)(=O)Nc1ccc(-c2ncnc3[nH]c(-c4ccc(F)cc4)cc23)cc1 [P-0431, N-[4-[6-(4-fluorophenyl)-7H-pyrrolo[2,3-d]pyrimidin-4-yl]phenyl]ethanesulfonamide]
IC50 (c-kit kinase): 0.0001 to 1 µM | IC50 (c-kit mutant D816V): 0.0001 to 1 µM

CCc1ccc(S(=O)(=O)NC2CCN(c3ncnc4[nH]c(-c5cnn(C)c5)cc34)CC2)cc1 [P-0676, 4-ethyl-N-[1-[6-(1-methylpyrazol-4-yl)-7H-pyrrolo[2,3-d]pyrimidin-4-yl]-4-piperidyl]benzenesulfonamide]
IC50 (c-kit kinase): 0.0001 to 1 µM | IC50 (c-kit mutant D816V): 0.0001 to 1 µM

CCCNS(=O)(=O)N1CCN(c2ncnc3[nH]c(-c4ccccc4)cc23)CC1 [P-0241, 4-(6-phenyl-7H-pyrrolo[2,3-d]pyrimidin-4-yl)-N-propyl-piperazine-1-sulfonamide]
IC50 (c-kit kinase): 1 to 10 µM | IC50 (c-kit mutant D816V): 0.0001 to 1 µM

C[C@H](NC(=O)N1CCN(c2ncnc3cc(C4=CCN(C(=O)C5CC5)CC4)sc23)CC1(C)C)c1cccc(Cl)c1 [P-0552, N-[(1S)-1-(3-chlorophenyl)ethyl]-4-[6-[1-(cyclopropanecarbonyl)-3,6-dihydro-2H-pyridin-4-yl]thieno[3,2-d]pyrimidin-4-yl]-2,2-dimethyl-piperazine-1-carboxamide]
IC50 (c-kit kinase): 0.0001 to 1 µM | IC50 (c-kit mutant D816V): 0.0001 to 1 µM

O=S(=O)(NC1CC1)c1cccc(-c2ncnc3[nH]c(-c4ccc(F)cc4)cc23)c1 [P-0429, N-cyclopropyl-3-[6-(4-fluorophenyl)-7H-pyrrolo[2,3-d]pyrimidin-4-yl]benzenesulfonamide]
IC50 (c-kit kinase): 0.0001 to 1 µM | IC50 (c-kit mutant D816V): 0.0001 to 1 µM

O=C(NCc1ccc(F)cc1)N1CCN(c2ncnc3[nH]c(-c4ccncc4)cc23)CC1 [P-0101, N-[(4-fluorophenyl)methyl]-4-[6-(4-pyridyl)-7H-pyrrolo[2,3-d]pyrimidin-4-yl]piperazine-1-carboxamide]
IC50 (c-kit kinase): 1 to 10 µM | IC50 (c-kit mutant D816V): 0.0001 to 1 µM

CS(=O)(=O)N1CC=C(c2cc3ncnc(N4CCN(C(=O)NCc5ccc(F)cc5)CC4)c3s2)CC1 [P-0568, N-[(4-fluorophenyl)methyl]-4-[6-(1-methylsulfonyl-3,6-dihydro-2H-pyridin-4-yl)thieno[3,2-d]pyrimidin-4-yl]piperazine-1-carboxamide]
IC50 (c-kit kinase): 1 to 10 µM | IC50 (c-kit mutant D816V): 0.0001 to 1 µM

C[C@H](NC(=O)N1CCN(c2ncnc3[nH]c(-c4ccc(F)cc4)cc23)CC1)c1cccc(OC(F)F)c1 [P-0072, N-[(1S)-1-[3-(difluoromethoxy)phenyl]ethyl]-4-[6-(4-fluorophenyl)-7H-pyrrolo[2,3-d]pyrimidin-4-yl]piperazine-1-carboxamide]
IC50 (c-kit kinase): 1 to 10 µM | IC50 (c-kit mutant D816V): 0.0001 to 1 µM
